Measurements as given in US8268797B2, “Combination therapy for the treatment of cancer” (Isis Pharmaceuticals, Inc., priority 2008, dated 2012).

Experiments:
H1975 xenografts = assay: H1975 human non-small cell lung cancer xenograft tumor volume in athymic nude mice; type: in vivo; conditions: for H1975 Xenograft Tumor Volume, Mean / Percent Reduction of H1975 Tumor Size on Day 43: ASO 50 mg/kg iv, cisplatin 5 mg/kg IP weekly; for H1975 Xenograft Tumor Volume, Mean: nude mice; for Percent Reduction of H1975 Tumor Size on Day 43: negative number indicates reduction vs. control
Description: (§1) Xenograft studies are carried out as described in Graff et al. (2005) Cancer Res. 65:7462-7469. Five million human cancer cells representing non-small cell lung cancer (line A549; ATCC, accession no. CCL-185; line NCI-H1975; ATCC, accession no. CRL-5908) are injected subcutaneously in the flank of 6-8 week old, athymic nude mice (Harlan, Indianapolis, Ind.) in a 1:1 mixture of serum-free growth medium and matrigel (Becton Dickinson, Bedford, Mass., catalogue #354234). Mice are monitored daily for palpable tumors.
(§2) When tumor volumes reach ˜50-100 mm^3, mice are randomized to treatment groups (Graff et al. (2007) J. Clin. Invest. 117:2638-48). Body weight is monitored each time tumors are measured.
(§3) For treatment, all mice are injected intravenously with the eIF-4E ASO in saline in a total volume of 200 μl. The ASO consists of the nucleotide sequence 5′-[…]-3′ (SEQ ID NO:1), in which every internucleoside linkage is a phosphorothioate linkage, nucleotides 1-5 and 16-20 reading from the 5′ end to the 3′ end each comprise a 2′-O-(2-methoxyethyl) sugar, nucleotides 6-15 are 2′-deoxynucleotides, every cytosine residue is a 5-methylcytosine, and which is in the form of a sodium salt. The mice are first injected with an initial loading dose of 50 mg/kg ASO for 3 consecutive days, followed by 50 mg/kg thrice weekly thereafter.
(§4) Cisplatin dosing begins 8 days after the first ASO dose to allow time for reduction of eIF-4E protein expression. Mice are dosed intraperitoneally (IP) with 2 or 5 mg/kg cisplatin (Teva Parenteral Medicines, Inc.; 0703-5748-11) from an infusion concentrate diluted in saline, in a volume of 200 μl once weekly for 65 days. One mL of infusion concentrate (1 mg/mL) contains 1 mg cisplatin, 9 mg sodium chloride, hydrochloric acid and/or sodium hydroxide to pH 3.2-4.4, and water for injection.
(§5) The vehicle only group is dosed with saline.
(§6) Tumor volumes are calculated measuring the largest (L) and smallest (W) diameters with a caliper. The formula is: Volume=L×W^2×0.534. Tumor volume data are transformed to a log scale to equalize variance across time and treatment groups. The log volume data are analyzed with a two-way repeated measures analysis of variance by time and treatment using SAS PROC MIXED software (SAS Institute Inc, Cary, N.C.) using the spatial power covariance structure. Treatment groups are compared to the control group at each time point and overall. The data may be plotted as means and standard errors for each treatment group versus time. Additivity is assessed in two ways: (1) as an overall interaction effect between the ASO and cisplatin in the repeated measures analysis, and (2) by using the Bliss Independence method on the final day of the study (C. I. Bliss (1939) Ann. AppL Biol. 26:585-615). These two methods yield the same results.

A549 xenografts = assay: A549 human non-small cell lung cancer xenograft tumor volume in athymic nude mice; type: in vivo; conditions: for A549 Xenograft Tumor Volume, Mean / Percent Reduction of A549 Tumor Size on Day 75: ASO 50 mg/kg iv, cisplatin 5 mg/kg IP weekly; for A549 Xenograft Tumor Volume, Mean: nude mice; for Percent Reduction of A549 Tumor Size on Day 75: negative number indicates reduction vs. control
Description: as §1, §2, §3, §4, §5, §6

Row | Compound | H1975 Xenograft Tumor Volume, Mean (H1975 xenografts; Day 7) | H1975 Xenograft Tumor Volume, Mean (H1975 xenografts; Day 12) | H1975 Xenograft Tumor Volume, Mean (H1975 xenografts; Day 15) | H1975 Xenograft Tumor Volume, Mean (H1975 xenografts; Day 19) | H1975 Xenograft Tumor Volume, Mean (H1975 xenografts; Day 22) | H1975 Xenograft Tumor Volume, Mean (H1975 xenografts; Day 26) | H1975 Xenograft Tumor Volume, Mean (H1975 xenografts; Day 29) | H1975 Xenograft Tumor Volume, Mean (H1975 xenografts; Day 33) | H1975 Xenograft Tumor Volume, Mean (H1975 xenografts; Day 36) | H1975 Xenograft Tumor Volume, Mean (H1975 xenografts; Day 40) | H1975 Xenograft Tumor Volume, Mean (H1975 xenografts; Day 43) | Percent Reduction of H1975 Tumor Size on Day 43 (H1975 xenografts; Day 43) | A549 Xenograft Tumor Volume, Mean (A549 xenografts; Day 11) | A549 Xenograft Tumor Volume, Mean (A549 xenografts; Day 14) | A549 Xenograft Tumor Volume, Mean (A549 xenografts; Day 18) | A549 Xenograft Tumor Volume, Mean (A549 xenografts; Day 21) | A549 Xenograft Tumor Volume, Mean (A549 xenografts; Day 25) | A549 Xenograft Tumor Volume, Mean (A549 xenografts; Day 28) | A549 Xenograft Tumor Volume, Mean (A549 xenografts; Day 32) | A549 Xenograft Tumor Volume, Mean (A549 xenografts; Day 36) | other results
1 | N.N.[Cl][Pt][Cl] [Cisplatin, cis-Diamminedichloroplatinum (II), reference compound] | 40.02 mm^3 | 90.76 mm^3 | 112.12 mm^3 | 172.5 mm^3 | 295.95 mm^3 | 595.06 mm^3 | 863.18 mm^3 | 1221.36 mm^3 | 1740.85 mm^3 | 2095.44 mm^3 | 2798.22 mm^3 | −19.6% | 85.43 mm^3 | 94.63 mm^3 | 124.68 mm^3 | 137.74 mm^3 | 210.75 mm^3 | 238.78 mm^3 | 283.12 mm^3 | 310.61 mm^3 | A549 Xenograft Tumor Volume, Mean (A549 xenografts; Day 40): 367.44 mm^3; A549 Xenograft Tumor Volume, Mean (A549 xenografts; Day 43): 412.68 mm^3; A549 Xenograft Tumor Volume, Mean (A549 xenografts; Day 47): 405.18 mm^3; A549 Xenograft Tumor Volume, Mean (A549 xenografts; Day 50): 428.84 mm^3; A549 Xenograft Tumor Volume, Mean (A549 xenografts; Day 54): 478.35 mm^3; A549 Xenograft Tumor Volume, Mean (A549 xenografts; Day 57): 482.77 mm^3; A549 Xenograft Tumor Volume, Mean (A549 xenografts; Day 61): 478.95 mm^3; A549 Xenograft Tumor Volume, Mean (A549 xenografts; Day 64): 529.51 mm^3; A549 Xenograft Tumor Volume, Mean (A549 xenografts; Day 68): 520.83 mm^3; A549 Xenograft Tumor Volume, Mean (A549 xenografts; Day 71): 564.57 mm^3; A549 Xenograft Tumor Volume, Mean (A549 xenografts; Day 75): 535.33 mm^3; Percent Reduction of A549 Tumor Size on Day 75 (A549 xenografts; Day 75): −31.9%
2 | d(P-thio) ([2′-O-(2-methoxyethyl)]m5rU-([2′-O-(2-methoxyethyl)]rG-([2′-O-(2-methoxyethyl)]m5rU-([2′-O-(2-methoxyethyl)]mSrC-([2′-O-(2-methoxyethyl)]rA-T-A-T-T-m5C-m5C-T-G-G-A ([2′-O-(2-methoxyethyl)]m5rU-([2′-O-(2-methoxyethyl)]m5rC-([2′-O-(2-methoxyethyl)]m5rC-([2′-O-(2-methoxyethyl)]m5rU-([2′-O-(2-methoxyethyl)]m5rU) [eIF-4E ASO] | 45.83 mm^3 | 85.9 mm^3 | 121.6 mm^3 | 255.64 mm^3 | 376.84 mm^3 | 742.98 mm^3 | 1100.19 mm^3 | 1485.65 mm^3 | 2164.31 mm^3 | 2901.75 mm^3 | 3881.36 mm^3 | 11.5% | 86.39 mm^3 | 87.36 mm^3 | 141.7 mm^3 | 134.88 mm^3 | 212.4 mm^3 | 251.64 mm^3 | 309.94 mm^3 | 402.67 mm^3 | sensitization of tumor cells to the growth- and proliferation-inhibiting action of cisplatin (H1975 xenografts; H1975 xenografts): sensitizes the tumor cells; sensitization of tumor cells to the growth- and proliferation-inhibiting action of cisplatin (A549 xenografts; A549 xenografts): sensitizes the tumor cells; A549 Xenograft Tumor Volume, Mean (A549 xenografts; Day 40): 439.54 mm^3; A549 Xenograft Tumor Volume, Mean (A549 xenografts; Day 43): 499.06 mm^3; A549 Xenograft Tumor Volume, Mean (A549 xenografts; Day 47): 455.53 mm^3; A549 Xenograft Tumor Volume, Mean (A549 xenografts; Day 50): 463.92 mm^3; A549 Xenograft Tumor Volume, Mean (A549 xenografts; Day 54): 520.9 mm^3; A549 Xenograft Tumor Volume, Mean (A549 xenografts; Day 57): 550.29 mm^3; A549 Xenograft Tumor Volume, Mean (A549 xenografts; Day 61): 597.72 mm^3; A549 Xenograft Tumor Volume, Mean (A549 xenografts; Day 64): 618.75 mm^3; A549 Xenograft Tumor Volume, Mean (A549 xenografts; Day 68): 594.08 mm^3; A549 Xenograft Tumor Volume, Mean (A549 xenografts; Day 71): 566.2 mm^3; A549 Xenograft Tumor Volume, Mean (A549 xenografts; Day 75): 608.86 mm^3; Percent Reduction of A549 Tumor Size on Day 75 (A549 xenografts; Day 75): −22.6%
